Literature values, collected in article PMC9737391, “Trifluoromethylcinnamanilide Michael Acceptors for Treatment of Resistant Bacterial Infections” (International Journal of Molecular Sciences, 2022).

System: NF-κB
Design: method as in PMID 31835703
Conditions: compared with prednisone; cited from earlier work

O=C(/C=C/c1ccccc1)Nc1cc(C(F)(F)F)ccc1Cl [3g]
anti-inflammatory potential (NF-κB inhibition): comparable to that prednisone
